# Molecular target: T1, CCR2 (Homo sapiens, UniProt P41597)
# T1 construct: THP-1 human monocytic leukemic cell line, which expresses endogenous CCR2; endogenous in cells; host or cells: human peripheral blood mononuclear cells, human monocytes or THP-1 cells
# T1 sequence (P41597 1-360 isoform P41597-2): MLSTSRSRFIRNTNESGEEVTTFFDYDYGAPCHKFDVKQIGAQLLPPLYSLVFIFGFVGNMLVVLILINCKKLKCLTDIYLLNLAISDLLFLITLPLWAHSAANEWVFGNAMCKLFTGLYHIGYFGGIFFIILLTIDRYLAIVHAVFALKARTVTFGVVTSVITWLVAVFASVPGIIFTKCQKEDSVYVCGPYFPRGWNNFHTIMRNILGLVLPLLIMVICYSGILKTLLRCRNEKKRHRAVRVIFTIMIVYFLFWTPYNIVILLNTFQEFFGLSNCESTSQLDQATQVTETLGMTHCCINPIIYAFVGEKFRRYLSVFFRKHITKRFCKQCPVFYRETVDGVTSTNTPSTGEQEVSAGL
# Test: CCR2 binding: antagonism of 125I-MCP-1 binding (human PBMC / THP-1 whole cell)
# Details: n = 1 unless otherwise noted
# Experimental: Antagonism of MCP-1 Binding to Human PBMC
# Millipore filter plates (#MABVN1250) are treated with 100 μl of binding buffer (0.5% bovine serum albumin, 20 mM HEPES buffer and 5 mM magnesium chloride in RPMI 1640 media) for thirty minutes at room temperature. To measure binding, 50 μl of binding buffer, with or without a known concentration compound, is combined with 50 μl of ^125-I labeled human MCP-1 (to give a final concentration of 150 pM radioligand) and 50 μl of binding buffer containing 5×10^5 cells. Cells used for such binding assays can include human peripheral blood mononuclear cells isolated by Ficoll-Hypaque gradient centrifugation, human monocytes (Weiner et al., J. Immunol. Methods. 1980, 36, 89), or the THP-1 cell line which expresses the endogenous receptor. The mixture of compound, cells and radioligand are incubated at room temperature for thirty minutes. Plates are placed onto a vacuum manifold, vacuum applied, and the plates washed three times with binding buffer containing 0.5M NaCl. The plastic skirt is removed from the plate, the plate allowed to air dry, the wells punched out and counted. The percent inhibition of binding is calculated using the total counts obtained in the absence of any competing compound and the background binding determined by addition of 100 nM MCP-1 in place of the test compound.
# THP-1 Monocytic Cell Binding: Whole Cell-based Assay
# The human CCR2 binding assay was also established with the THP-1 human monocytic leukemic cell line, which expresses endogenous CCR2, using ^125I-human MCP-1 as the tracer ligand. Radioligand competition binding assays were used for assessment of binding affinity of test compounds to the CCR2 receptor. For radioligand competition studies, 100 μl containing 2.5×10^5 THP-1 cells/well (in assay buffer containing 50 mM HEPES, pH7.4, 5 mM MgCl2, 1 mM CaCl2 and 0.5% BSA) were added to 96-well assay plates containing the test compounds in 3-fold serial dilution, with final concentrations ranging from 5 μM to 100 pM. Subsequently, 50 μl ^125I-MCP-1 radioligand at a final concentration of 0.2 nM in assay buffer were added to the reaction. After a 90 minute incubation period at room temperature, the binding reaction was terminated by harvesting on GF/B filter plates (PerkinElmer Cat. No. 6005177) followed by washing with ice-cold wash buffer (50 mM HEPES, pH 7.4, 0.1% BSA, 0.5 M NaCl) to remove unbound ligand. After washing, the plate was dried for 45 minutes at 60° C. followed by addition of 40 μl MicroScint 20 scintillation fluid, sealed and analyzed by the Packard TopCount reader. Non-specific binding was determined in the presence of 10 μM (a molar excess of 5000 fold) of an in-house CCR2 small molecule antagonist (CCR2 IC50=2 nM). Specific binding of ^125I-MCP-1 was calculated as the difference between total and non-specific binding. The competition data was plotted as a percentage inhibition of radioligand specific bound in the absence of test compound (percent of total signal). After correcting for non-specific binding, IC50 values were determined. The IC50 is defined as the concentration of test compound required to reduce ^125I-MCP-1 specific binding by 50% and was calculated using the four parameter logistic equation to fit the normalized data.
row,Ki [nM],SMILES
1,330,"Cc1ccc([C@@]2(C)C[C@H](C)CC=C2C(=O)O)cc1C (racemic) [Example 1-15, (4RS,6RS)-6-(3,4-dimethylphenyl)-4,6-dimethylcyclohex-1-enecarboxylic acid]"
2,300,"Cc1cc(C)cc([C@@]2(C)C[C@H](C)CC=C2C(=O)O)c1 (racemic) [Example 1-29, (4RS,6RS)-6-(3,5-dimethylphenyl)-4,6-dimethylcyclohex-1-enecarboxylic acid]"
3,5500,"CC(=O)NC[C@@H]1CC=C(C(=O)O)[C@@](C)(c2ccc(Cl)c(C(F)(F)F)c2)C1 (racemic) [Example 11, (4RS,6RS)-4-(acetamidomethyl)-6-(4-chloro-3-(trifluoromethyl)phenyl)-6-methylcyclohex-1-enecarboxylic acid]"
4,3700,"Cc1cccc([C@@]2(C)C[C@H](C)CC=C2C(=O)O)c1C (racemic) [Example 1-19, (4RS,6RS)-6-(2,3-dimethylphenyl)-4,6-dimethylcyclohex-1-enecarboxylic acid]"
5,3900,"C[C@]1(c2ccc(Cl)c(Cl)c2)C[C@H](c2ccccc2)CC=C1C(=O)O (racemic) [Example 1-06, (4RS,6RS)-6-(3,4-dichlorophenyl)-6-methyl-4-phenylcyclohex-1-enecarboxylic acid]"
6,80,"C[C@@H]1CC=C(C(=O)O)[C@@](C)(c2ccc(Cl)c(Cl)c2)C1 (racemic) [Example 1-11, (4RS,6RS)-6-(3,4-dichlorophenyl)-4,6-dimethylcyclohex-1-enecarboxylic acid]"
7,1100,"Cc1cc([C@@]2(C)C[C@H](C)CC=C2C(=O)O)ccc1F (racemic) [Example 1-25, (4RS,6RS)-6-(4-fluoro-3-methylphenyl)-4,6-dimethylcyclohex-1-enecarboxylic acid]"
8,150,"C[C@@H]1CC=C(C(=O)NS(=O)(=O)c2ccccc2)[C@@](C)(c2ccc(Cl)c(Cl)c2)C1 (racemic) [Example 3-03, (4RS,6RS)-6-(3,4-dichlorophenyl)-4,6-dimethyl-N-(phenylsulfonyl)cyclohex-1-enecarboxamide]"
9,140,"C[C@@H]1CC=C(C(=O)O)[C@@](C)(c2cccc3ccccc23)C1 (racemic) [Example 1-16, (4RS,6RS)-4,6-dimethyl-6-(napthalen-1-yl)cyclohex-1-enecarboxylic acid]"
10,6600,"C[C@@H]1CC=C(C(=O)NS(=O)(=O)C(F)(F)F)[C@@](C)(c2ccc(Cl)c(Cl)c2)C1 (racemic) [Example 3-02, (4RS,6RS)-6-(3,4-dichlorophenyl)-4,6-dimethyl-N-(trifluoromethylsulfonyl)-cyclohex-1-enecarboxamide]"
11,1000,"CC1=C(C(=O)O)[C@@](O)(c2ccc(Cl)c(Cl)c2)C[C@H](C)C1 (racemic) [Example 5, (4RS,6SR)-6-(3,4-dichlorophenyl)-6-hydroxy-2,4,-dimethylcyclohex-1-enecarboxylic acid]"
12,5800,"C[C@@H]1CC=C(C(=O)O)[C@@](C)(c2ccc(Cl)c(Cl)c2)C1 [Example 4-02b, (4R,6R)-6-(3,4-dichlorophenyl)-4,6-dimethylcyclohex-1-enecarboxylic acid]"
13,1600,"CC1(c2cccc(C(F)(F)F)c2)CCCC=C1C(=O)O (racemic) [Example 1-10, 6-methyl-6-(3-(trifluoromethyl)-phenyl)cyclohex-1-enecarboxylic acid]"
14,5800,"C[C@H]1CCC(C(=O)O)[C@](C)(c2cccc(C(F)(F)F)c2)C1 (mixture of isomers) [Example 2, (2RS,4SR)-2,4-dimethyl-2-(3-(trifluoromethyl)phenyl)cyclohexanecarboxylic acid]"
15,280,"C[C@@H]1CC=C(C(=O)O)[C@@](C)(c2cccc(C(F)(F)F)c2)C1 (racemic) [Example 1-12, (4RS,6RS)-4,6-dimethyl-6-(3-(trifluoromethyl)phenyl)cyclohex-1-enecarboxylic acid]"
16,740,"C[C@@H]1CC=C(C(=O)O)[C@@](C)(c2cc(C(F)(F)F)cc(C(F)(F)F)c2)C1 (racemic) [Example 1-14, (4RS,6RS)-6-(3,5-bis(trifluoromethyl)-phenyl)-4,6-dimethylcyclohex-1-enecarboxylic acid]"
17,9,"C[C@H]1CC=C(C(=O)O)[C@](C)(c2ccc(Cl)c(C(F)(F)F)c2)C1 [Example 4-01a, (4S,6S)-6-(4-chloro-3-(trifluoromethyl)-phenyl)-4,6-dimethylcyclohex-1-enecarboxylic acid]"
18,320,"C[C@@H]1CC=C(C(=O)O)[C@@](C)(c2ccc3ccccc3c2)C1 (racemic) [Example 1-20, (4RS,6RS)-4,6-dimethyl-6-(naphthalen-2-yl)cyclohex-1-enecarboxylic acid]"
19,8200,"Cc1ccc(C2(C)CCCC=C2C(=O)O)cc1C (racemic) [Example 1-08, 6-(3,4-dimethylphenyl)-6-methylcyclohex-1-enecarboxylic acid]"
20,440,"CC1(c2ccc(Cl)c(Cl)c2)CCCC=C1C(=O)O (racemic) [Example 1-01, 6-(3,4-dichlorophenyl)-6-methylcyclohex-1-enecarboxylic acid]"
21,210,"C[C@]1(c2ccc(Cl)c(C(F)(F)F)c2)C[C@H](CO)CC=C1C(=O)O (racemic) [Example 7, (4RS,6RS)-6-(4-chloro-3-(trifluoromethyl)-phenyl)-4-(hydroxymethyl)-6-methylcyclohex-1-enecarboxylic acid]"
22,130,"Cc1cc([C@@]2(C)C[C@H](C)CC=C2C(=O)O)cc(C)c1Cl (racemic) [Example 1-27, (4RS,6RS)-6-(4-chloro-3,5-dimethylphenyl)-4,6-dimethylcyclohex-1-enecarboxylic acid]"
23,580,"CC1=C(C(=O)O)[C@@](C)(c2ccc(Cl)c(Cl)c2)C[C@H](C)C1 (racemic) [Example 6, (4RS,6RS)-6-(3,4-dichlorophenyl)-2,4,6-trimethylcyclohex-1-enecarboxylic acid]"
24,3400,"CC1(c2ccc(Cl)cc2)CCCC=C1C(=O)O (racemic) [Example 1-02, 6-(4-chlorophenyl)-6-methylcyclohex-1-enecarboxylic acid]"
25,36,"C[C@H]1CC=C(C(=O)O)[C@](C)(c2ccc(Cl)c(Cl)c2)C1 [Example 4-02a, (45,65)-6-(3,4-dichlorophenyl)-4,6-dimethylcyclohex-1-enecarboxylic acid]"
26,550,"Cc1ccc(C)c([C@@]2(C)C[C@H](C)CC=C2C(=O)O)c1 (racemic) [Example 1-26, (4RS,6RS)-6-(2,5-dimethylphenyl)-4,6-dimethylcyclohex-1-enecarboxylic acid]"
27,2500,"C[C@]1(c2ccc(Cl)c(C(F)(F)F)c2)C[C@H](OCc2ccccc2)CC=C1C(=O)O (racemic) [Example 12, (4RS,6RS)-4-(benzyloxy)-6-(4-chloro-3-(trifluoromethyl)phenyl)-6-methylcyclohex-1-enecarboxylic acid]"
28,5400,"C[C@@H]1CC=C(C(=O)NS(C)(=O)=O)[C@@](C)(c2ccc(Cl)c(Cl)c2)C1 (racemic) [Example 3-01, (4RS,6RS)-6-(3,4-dichlorophenyl)-4,6-dimethyl-N-(methylsulfonyl)cyclohex-1-enecarboxamide]"
29,250,"Cc1ccc([C@@]2(C)C[C@H](C)CC=C2C(=O)O)c2ccccc12 (racemic) [Example 1-28, (4RS,6RS)-4,6-dimethyl-6-(4-methyl-naphthalen-1-yl)cyclohex-1-enecarboxylic acid]"

# Reference: patent publication US8507559B2, “Cyclohexenyl modulators of chemokine receptor activity” (Bristol-Myers Squibb Company, priority 2008, dated 2013)
